# Measured values: PubChem BioAssay (NCI)
#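 The compound was tested at five concentrations on cells cultured in 96-well plates, with a 48-hour exposure period. The concentration for full growth arrest is given as TGI.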
# Assays:
# Assay in all cases: NCI tumour cell line growth inhibition, 48 h
# 786-0 renal = system: 786-0 renal
# A549 NSCLC = system: A549 NSCLC
# ACHN renal = system: ACHN renal
# CAKI-1 renal = system: CAKI-1 renal
# CCRF-CEM leukemia = system: CCRF-CEM leukemia
# COLO 205 colon = system: COLO 205 colon
# DLD-1 colon = system: DLD-1 colon
# DMS 114 small cell lung = system: DMS 114 small cell lung
# DMS 273 small cell lung = system: DMS 273 small cell lung
# EKVX NSCLC = system: EKVX NSCLC
# HCC-2998 colon = system: HCC-2998 colon
# HCT-116 colon = system: HCT-116 colon
# HCT-15 colon = system: HCT-15 colon
# HL-60(TB) leukemia = system: HL-60(TB) leukemia
# HOP-18 NSCLC = system: HOP-18 NSCLC
# HOP-62 NSCLC = system: HOP-62 NSCLC
# HOP-92 NSCLC = system: HOP-92 NSCLC
# HT29 colon = system: HT29 colon
# IGROV1 ovarian = system: IGROV1 ovarian
# K-562 leukemia = system: K-562 leukemia
# KM12 colon = system: KM12 colon
# KM20L2 colon = system: KM20L2 colon
# LOX IMVI melanoma = system: LOX IMVI melanoma
# LXFL 529 NSCLC = system: LXFL 529 NSCLC
# M14 melanoma = system: M14 melanoma
# M19-MEL melanoma = system: M19-MEL melanoma
# MALME-3M melanoma = system: MALME-3M melanoma
# MOLT-4 leukemia = system: MOLT-4 leukemia
# NCI-H226 lung = system: NCI-H226 lung
# NCI-H23 lung = system: NCI-H23 lung
# NCI-H460 lung = system: NCI-H460 lung
# NCI-H522 lung = system: NCI-H522 lung
# OVCAR-3 ovarian = system: OVCAR-3 ovarian
# OVCAR-4 ovarian = system: OVCAR-4 ovarian
# OVCAR-5 ovarian = system: OVCAR-5 ovarian
# OVCAR-8 ovarian = system: OVCAR-8 ovarian
# RPMI-8226 leukemia = system: RPMI-8226 leukemia
# RXF 393 renal = system: RXF 393 renal
# RXF-631 renal = system: RXF-631 renal
# SF-295 CNS = system: SF-295 CNS
# SF-539 CNS = system: SF-539 CNS
# SK-MEL-2 melanoma = system: SK-MEL-2 melanoma
# SK-MEL-28 melanoma = system: SK-MEL-28 melanoma
# SK-MEL-5 melanoma = system: SK-MEL-5 melanoma
# SK-OV-3 ovarian = system: SK-OV-3 ovarian
# SN12C renal = system: SN12C renal
# SNB-19 CNS = system: SNB-19 CNS
# SNB-75 CNS = system: SNB-75 CNS
# SNB-78 CNS = system: SNB-78 CNS
# SR leukemia = system: SR leukemia
# SW-620 colon = system: SW-620 colon
# TK-10 renal = system: TK-10 renal
# U251 CNS = system: U251 CNS
# UACC-257 melanoma = system: UACC-257 melanoma
# UACC-62 melanoma = system: UACC-62 melanoma
# UO-31 renal = system: UO-31 renal
# XF 498 CNS = system: XF 498 CNS
smiles,measurement,setting,value
CCCCCCCCCCCCCCCCP(=O)(OC)OC,TGI,786-0 renal,31.4 µM
same,TGI,A549 NSCLC,33.4 µM
same,TGI,ACHN renal,28 µM
same,TGI,CAKI-1 renal,30.5 µM
same,TGI,CCRF-CEM leukemia,40.1 µM
same,TGI,COLO 205 colon,30.7 µM
same,TGI,DLD-1 colon,31.4 µM
same,TGI,DMS 114 small cell lung,30.5 µM
same,TGI,DMS 273 small cell lung,27.6 µM
same,TGI,EKVX NSCLC,30 µM
same,TGI,HCC-2998 colon,30.8 µM
same,TGI,HCT-116 colon,33.1 µM
same,TGI,HCT-15 colon,30.2 µM
same,TGI,HL-60(TB) leukemia,27.3 µM
same,TGI,HOP-18 NSCLC,28.6 µM
same,TGI,HOP-62 NSCLC,24.3 µM
same,TGI,HOP-92 NSCLC,35.3 µM
same,TGI,HT29 colon,31.6 µM
same,TGI,IGROV1 ovarian,34.6 µM
same,TGI,K-562 leukemia,44.8 µM
same,TGI,KM12 colon,32.2 µM
same,TGI,KM20L2 colon,37.4 µM
same,TGI,LOX IMVI melanoma,31.9 µM
same,TGI,LXFL 529 NSCLC,29.3 µM
same,TGI,M14 melanoma,30.2 µM
same,TGI,M19-MEL melanoma,30.3 µM
same,TGI,MALME-3M melanoma,32.7 µM
same,TGI,MOLT-4 leukemia,32.3 µM
same,TGI,NCI-H226 lung,33.2 µM
same,TGI,NCI-H23 lung,31.8 µM
same,TGI,NCI-H460 lung,31.1 µM
same,TGI,NCI-H522 lung,26.8 µM
same,TGI,OVCAR-3 ovarian,31.9 µM
same,TGI,OVCAR-4 ovarian,35.9 µM
same,TGI,OVCAR-5 ovarian,27.1 µM
same,TGI,OVCAR-8 ovarian,30.9 µM
same,TGI,RPMI-8226 leukemia,35 µM
same,TGI,RXF 393 renal,34.4 µM
same,TGI,RXF-631 renal,31.3 µM
same,TGI,SF-295 CNS,32.4 µM
same,TGI,SF-539 CNS,34.9 µM
same,TGI,SK-MEL-2 melanoma,30 µM
same,TGI,SK-MEL-28 melanoma,31.6 µM
same,TGI,SK-MEL-5 melanoma,30.7 µM
same,TGI,SK-OV-3 ovarian,29 µM
same,TGI,SN12C renal,31.3 µM
same,TGI,SNB-19 CNS,28.6 µM
same,TGI,SNB-75 CNS,32 µM
same,TGI,SNB-78 CNS,34.1 µM
same,TGI,SR leukemia,37.9 µM
same,TGI,SW-620 colon,28.2 µM
same,TGI,TK-10 renal,31 µM
same,TGI,U251 CNS,32.4 µM
same,TGI,UACC-257 melanoma,31.8 µM
same,TGI,UACC-62 melanoma,27.8 µM
same,TGI,UO-31 renal,24.5 µM
same,TGI,XF 498 CNS,25.8 µM
